Columns and labels:
IGROV1 cells = assay: mRNA delivery in vitro assay (luciferase / mCherry mRNA); assay type: cell-based, human
Protocol: ZAL mRNA delivery in vitro assay: ZAL nanoparticles with firefly luciferase mRNA (Tri-Link Biotechnologies) were prepared using the in vitro nanoparticle formulation method outlined above. IGROV1 cells were seed in white opaque 96-well tissue culture plates at a seeding density of 5×10^3 cells per well in 100 μL RPMI 1640 medium supplemented with 5% FBS, and allowed to attach overnight. After overnight incubation, and additional 100 μL medium was added to the wells. The ZAL:mRNA nanoparticles were prepared at a ZAL:mRNA weight ratio of 20:1, 10:1, 7.5:1 and 5:1, and lipid mixture molar compositions of 50:38.5 ZAL:cholesterol, with PEG lipid supplemented at a molar ratio of 5%, 2%, 1% or 0.5% at each weight ratio. The ZAL-mRNA nanoparticles were added to the cells at a dose of 100 ng mRNA per well and incubated for the indicated time (ranging from 6 h to 48 h), after which time cell viability and luciferase expression were evaluated with the ONE-Glo+Tox Assay cell viability and luciferase assay (Promega) and normalized to untreated cells (N=4+/−standard deviation)
ZNPs with mRNA (Tri-Link Biotechnologies) were prepared using the in vitro nanoparticle formulation method outlined above. IGROV1 cells were seeded in white opaque 96-well tissue culture plates at a seeding density of 5×10^3 cells per well in 100 μL RPMI 1640 medium supplemented with 5% FBS, and allowed to attach overnight. After overnight incubation, an additional 100 μL medium was added to the wells. The ZAL:mRNA nanoparticles were prepared at ZAL:mRNA weight ratios of 20:1, 10:1, 7.5:1 and 5:1, and lipid mixture molar compositions of 50:38.5:n ZAL:cholesterol:PEG-lipid, where n=5, 2, 1, and 0.5 at each weight ratio. The ZAL-mRNA nanoparticles were added to the cells at the appropriate mRNA dose and incubated for the indicated time (ranging from 6 h to 48 h), after which time cell viability and luciferase expression were evaluated with the ONE-Glo+Tox Assay (Promega) and normalized to untreated cells (N=4+/−standard deviation).

[1] = In vivo luciferase mRNA delivery (bioluminescence imaging); design: species or system mice; conditions: Luc mRNA i.v., 24 h; athymic nude 1 mg/kg, C57BL/6 4 mg/kg, NSG 1 mg/kg
Protocol: In vivo luciferase mRNA delivery: All experiments were approved by the Institutional Animal Care & Use Committee (IACUC) of The University of Texas Southwestern Medical Center and were consistent with local, state and federal regulations as applicable. ZA3-Ep10 ZAL was formulated with in vivo formulation at 50 ZAL:38.5 cholesterol: 2 or 0.5 PEG-lipid mole ratio in the lipid mix, and 7.5:1 ZAL:mRNA weight ratio. Athymic Nude-Foxn1^nu mice (Harlan Laboratories) were injected with ZAL-mRNA NPs at a dose of 1 mg/kg via tail vein injection or intraperiotneal injection. After 24 h and 48 h the luciferase expression was evaluated by live animal bioluminescence imaging Animals were anesthetized under isofluorane, and D-luciferin monosodium hydrate (GoldBio) substrate was injected IP. […]
All experiments were approved by the Institutional Animal Care & Use Committee (IACUC) of The University of Texas Southwestern Medical Center and were consistent with local, state and federal regulations as applicable. […] After 24 h and 48 h the luciferase expression was evaluated by live animal bioluminescence imaging Animals were anesthetized under isofluorane, and D-luciferin monosodium hydrate (GoldBio) substrate was injected subcutaneously in the neck scruff. […]

A549-Luc cells = assay: Cas9 mRNA delivery: mRNA level (RT-qPCR) and Cas9 protein expression (western blot); assay type: cell-based; conditions: for level of Cas9 mRNA: A549 lung cancer cells
Protocol: The cells were lysed in cold RIPA buffer (Thermo Scientific), the lysate cleared by centrifugation and total protein in the supernatant quantified by the BCA assay (Pierce). 50 μg total protein was loaded on 4-20% precast polyacrylamide gel and transferred to a nitrocellulose membrane (BioRad). The membrane was blocked in 5% nonfat milk for 1 hour at RT, and then incubated with primary antibody at 4° C. overnight (Cas9 antibody, 1:1000, Cell Signaling, 14697S; beta-actin antibody, 1:2000, Cell Signaling, 4970). Secondary antibodies were applied at RT for 1 hour (anti-rabbit IgG, HRP-linked antibody, Cell Signaling, 7074, anti-mouse IgG, HRP-linked antibody, Cell Signaling, 7076), and then the membrane was developed and detected on X-ray film.
Cells were transfected with Cas9 mRNA for the indicated time point in a 6-well plate and 0.5 μg/mL mRNA for the indicated time point. Total RNA was extracted using the TRIzol reagent according to the manufacturer's protocol. The RNA was reverse transcribed using the iScript Reverse Transcription kit (BioRad) and the real-time qPCR was run on a Bio-Rad C1000 Touch Thermal Cycler (CFX384 Real-time System). Each reaction was made with iTaq Universal SYBR Green 2× Supermix (Bio-Rad). The qPCR program is as follows:
Human β-actin was used as a control and mRNA levels were normalized to fold actin and plotted as an average of two independent experiments.

[2] = system: HeLa-Luc-Cas9 cells; IGROV1 cells; assay: Delivery efficacy of ZA3-Ep10 versus cationic structural analogue (siLuc, sgLuc, Luc mRNA); assay type: cell-based; conditions: siRNA, sgRNA and mRNA cargos; 7.5:1 weight ratio
Protocol: The ZNP or LNP formulation was fixed at 7.5:1 weight ratio ZAL or Cationic analogue to RNA. The lipid mixture for the NPs was 50:38.5:0.5 ZAL or cationic analogue: cholesterol: PEG-lipid, while for the A3-Ep14 NPs the zwitterionic phospholipid was titrated from 0 to 50% in the lipid mix. The nanoparticles were formulated by manual mixing using the in vitro formulation protocol. RNA binding was determined by the Ribogreen assay (N=3+/−standard deviation), while nanoparticle size was determined by dynamic light scattering (N=3+/−standard deviation). Luciferase silencing or editing of siLuc and sgLuc NPs was assayed in HeLa-Luc-Cas9 cells (7.35 nM sgRNA, 17.9 nM siRNA), while luciferase expression by Luc mRNA NPs was evaluated in IGROV1 cells (0.77 nM mRNA). Cells were assays after 40 h incubation time by the One-Glo+Tox assay and plotted with viability (dots) and luciferase expression (bars) as mean+/−standard deviation (N=4).

## CCCCCCCCC(O)CN(CCC(=O)NCC[N+](C)(C)CCCS(=O)(=O)[O-])CCN(CCN(CC(O)CCCCCCCC)CC(O)CCCCCCCC)CCN(CC(O)CCCCCCCC)CC(O)CCCCCCCC (stereo not drawn) [ZA3-Ep10]
IGROV1 cells; PEG-lipid 5, 2, 1 or 0.5 in lipid mix
  delivery efficacy of mRNA versus PEG lipid ratio: decreased with higher PEG lipid ratios
IGROV1 cells; luciferase mRNA (~2,000 nt), IGROV1 cells
  luciferase expression versus mRNA dose: dose-dependent
IGROV1 cells; luciferase mRNA, IGROV1 cells
  mRNA dose required for high expression: < 600 pM
IGROV1 cells; mCherry mRNA (~1,000 nt), IGROV1 cells
  mCherry expression: Bright mCherry expression
[1]
  tissues with expression of luciferase: liver, lung and spleen
A549-Luc cells; A549 cells, low at 4 h, increased by 12 h
  time of highest Cas9 protein expression: 36 h
A549-Luc cells; after 4 h incubation
  level of Cas9 mRNA: > 4 fold actin
A549-Luc cells; over the next 45 h
  level of Cas9 mRNA: 0.7 fold actin
[2]
  efficacy compared with cationic analogue: outperformed the cationic analogue supplemented with phospholipid

Source: patent US11685710B2, “Cationic sulfonamide amino lipids and amphiphilic zwitterionic amino lipids” (The Board of Regents of the University of Texas System, priority 2016, dated 2023)
